Experimental data: PMC8433439, “Bivalent ligands promote endosomal trafficking of the dopamine D3 receptor-neurotensin receptor 1 heterodimer” (Communications Biology, 2021)
“Also recorded” adds a separate entry of the source.

Assays:
D3R [1] = target: T1, D3R (Homo sapiens, UniProt P35462); test: Radioligand competition/saturation binding with [3H]spiperone, membranes of HEK293T cells monoexpressing D3R; conditions: read-out: % Specific binding [³H]Spiperone, D3R; for remaining activity at 0.0001 µM: log concentration -10.00; for remaining activity at 1 pM: log concentration -12.00; for remaining activity at 0.001 µM: log concentration -9.00
T1 sequence (P35462 whole entry): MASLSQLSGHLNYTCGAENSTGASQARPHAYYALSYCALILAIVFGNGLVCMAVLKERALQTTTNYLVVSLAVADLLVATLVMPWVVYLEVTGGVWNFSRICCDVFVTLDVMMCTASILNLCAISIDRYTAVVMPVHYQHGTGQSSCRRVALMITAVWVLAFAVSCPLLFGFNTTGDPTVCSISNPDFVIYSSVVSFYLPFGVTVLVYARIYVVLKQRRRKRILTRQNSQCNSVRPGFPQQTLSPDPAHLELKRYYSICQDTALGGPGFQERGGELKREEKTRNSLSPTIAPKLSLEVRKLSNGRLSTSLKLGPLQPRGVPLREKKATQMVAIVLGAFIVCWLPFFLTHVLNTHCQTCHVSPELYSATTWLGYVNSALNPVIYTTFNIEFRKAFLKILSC
Protocol: (§1) Affinities of the bivalent ligands were determined by radio-ligand displacement in analogy to previously described protocols[76]. […] Competition binding experiments were carried out using a protein concentration of 4–18 µg protein per well for the coexpression systems and 1–12 µg per well for the monoexpression system in a total volume of 200 µL. […] All binding experiments were carried out at 37 °C in binding buffer consisting of 50 mM Tris pH 7.4, 5 nM MgCl2, 1 mM EDTA, 100 µg ∙ mL^−1 bacitracin and 100 µg ∙ mL^−1 soybean trypsin inhibitor. Data were normalised to non-specific and total binding and analysed employing one- or two-site competition binding algorithms implemented in GraphPad Prism for windows, version 6.0 (GraphPad Software, San Diego California, USA, www.graphpad.com).

D3R [2] = target: T1, D3R; test: IPOne accumulation, D3R-mediated G protein activation, HEK293T cells with D3R and Gqprom; type: cell-based; parameters: host or cells: HEK293T, transient; conditions: compared to the reference agonist quinpirole
Protocol: Supplementary Figure 7 . Activation of D3R in transiently transfected HEK293T cells. D3R-mediated activation of G proteins was measured by stimulation of HEK293T cells transiently transfected with D3R and a promiscuous Gq protein (Gqprom). Subsequent f ormation of IP3 as second messenger of the Gq signaling pathway was determined employing the IPOne assay (CisBio). […]
TransIT293 in a DNA to reagent ratio of 1 : 3. After 24h, cells were detached using Versene […]
Germany) and additionally cultivated f or 24 h at 37°C, 5% CO 2. After replacement of the medium with 10 µL stimulation buffer (CisBio, Codolet, France), 5 µL of the test compounds dissolved in stimulation buffer were added. After 90 min at 37°C, 5 µL of IP1 reagent mix and 5 µ L of AB r eag ent mix in lysis buff er (CisBio) were added, f ollowed by a 60 min incubation at room temperature under light exclusion. The FRET ratio was determined using a CLARIOstar microplate reader with a f ilter […]
A sigmoid curve was fitted using the algorithms for three-parameter non-linear regression provided by GraphPad Pr ism 6.0 and the data were normalized to […]

D3R-Rluc = target: T2, D3R-Rluc (Homo sapiens, UniProt P35462); test: Bystander BRET internalisation (rGFP-CAAX / rGFP-FYVE), monoexpressed D3R-Rluc; type: cell-based; conditions: 1 µM quinpirole or 10 nM bivalent ligand
T2 construct: 24-aa linker […]; expressed in transfected cells; host or cells: HEK293SL or Δβ-arrestin-HEK, transient
T2 sequence (P35462 whole entry): as above
Protocol: HEK293SL cells[71] or Δβ-arrestin-HEK[49] were detached with Trypsin/EDTA (Wisent Inc., St-Bruno, QC, Canada) and 350,000 cells were transiently transfected in suspension using polyethyleneimine. 5 ng of NTSR1-Rluc or 400 ng of D3R-Rluc8 were either mono-or cotransfected with 600 ng of untagged D3R or 5 ng NTSR1, respectively, along with 300 ng rGFP-CAAX or 300 ng rGFP-FYVE and ssDNA to a total of 1 µg DNA. Cells were seeded in white poly-L-ornithine (Sigma Aldrich) coated 96-well plates (Greiner Bio one) at a density of 35,000 cells per well. 48 hours after transfection, cells were washed once with PBS and serum starved for 30–45 min in Tyrode’s Buffer at 37 °C, 5% CO2. Coelenterazine-h was added in a final concentration of 3 µM and cells were further incubated at 37 °C, 5% CO2. After 3 min, ligands were added and cells were stimulated for 30 min, 37 °C, 5% CO2 before determining the BRETratio using a Mithras LB940 multimode microplate reader with 480-20 nm (donor) and 530-20 nm (acceptor) filters. […] Ligand-induced effects were monitored by calculation of ΔBRET, which was determined as the difference in BRETratio between the ligand-treated conditions and vehicle-treated controls. Data were analysed by three-parameter sigmoid or bell-shaped nonlinear regression using the algorithms provided by GraphPad Prism 6.0.

D3R [3] = target: T1, D3R; test: Surface ELISA, monoexpressed Flag-D3R; type: cell-based; parameters: host or cells: HEK293T, transient; conditions: 1 µM quinpirole, 1 µM NT(8-13) or 10 nM 1d, 30 min
Protocol: β-arrestin 2 recruitment (bystander BRET)6
HEK293SL cells were diluted to a density of 350 ,000 cells ∙ mL-1 and transiently transfected using
to a total DNA amount of 1 µg . 35,000 cells were plated in a 96-well plate coated with poly L- ornithine
and cultivated f or 48 h at 37°C, 5% CO2. On the day of the experiment, the cell medium was aspirated
and each well was washed once with PBS and serum starved f or 30-45 min. A Deep Blue C dilution
ligand dilution in Tyrode’s buffer was added. After additional stimulation for 5 min at 37°C, 5% CO2,
BRET2 was determined using a Mithras LB940 multimode microplate reader with 400- 70 nm (donor)
Obtained BRETratios were normalized to vehicle
non- linear regression employing the models implemented in GraphPad Prism 6.

D3R [4] = target: T1, D3R; test: biochemical
Protocol: as §1

SMILES	remaining activity at 0.302 µM (D3R [1]; log concentration -6.52)	remaining activity at 0.0302 µM (D3R [1]; log concentration -7.52)	remaining activity at 0.00302 µM (D3R [1]; log concentration -8.52)	remaining activity at 0.000302 µM (D3R [1]; log concentration -9.52)	remaining activity at 0.0001 µM (D3R [1])	remaining activity at 30.2 pM (D3R [1]; log concentration -10.52)	remaining activity at 1 pM (D3R [1])	D3R-mediated activation of G proteins (D3R [2])	internalisation of monoexpressed D3R-Rluc (D3R-Rluc)	surface expression of monoexpressed D3R (D3R [3])	remaining activity at 0.001 µM (D3R [1])	remaining activity at 0.01 µM (D3R [1]; log concentration -8.00)	remaining activity at 10 pM (D3R [1]; log concentration -11.00)	Ki (D3R [4])
CCCN(CCCCc1cn(-c2ccc(-c3ccc(C(=O)NCCOCCOCCOCCOCCOCCOCCC(=O)NCCOCCOCCOCCOCCOCCOCCC(=O)NCCOCCOCCOCCOCCOCCOCCC(=O)NCCOCCOCCOCCOCCOCCOCCC(=O)N[C@@H](CCCNC(=N)N)C(=O)N[C@@H](CCCNC(=N)N)C(=O)N4CCC[C@H]4C(=O)N[C@@H](Cc4ccc(O)cc4)C(=O)N[C@H](C(=O)N[C@@H](CC(C)C)C(=O)O)[C@@H](C)CC)cc3)cc2)nn1)C1Cc2ccccc2C1 [1d]	-0.137%	12.6%	46.4%	92.1%	92.1%	96.8%	103%	full D3R agonists	could not detect internalisation	unchanged; also recorded: did not lead to apparent changes in surface expression				
CC[C@H](C)[C@H](NC(=O)[C@H](Cc1ccc(O)cc1)NC(=O)[C@@H]1CCCN1C(=O)[C@H](CCCNC(=N)N)NC(=O)[C@H](CCCNC(=N)N)NC(=O)CCOCCOCCOCCOCCOCCOCCNC(=O)CCOCCOCCOCCOCCOCCOCCNC(=O)CCOCCOCCOCCOCCOCCOCCNC(=O)CCOCCOCCOCCOCCOCCOCCNC(=O)c1ccc(-c2ccc(-n3cc(CCCCN4CCN(c5ccccc5OC)CC4)nn3)cc2)cc1)C(=O)N[C@@H](CC(C)C)C(=O)O [2d]							94.4%	weak partial agonist or antagonist-like behavior	could not detect internalisation					
CCCN(CCCCc1cn(-c2ccc(-c3ccc(C(=O)NCCOCCOCCOCCOCCOCCOCCC(=O)N[C@@H](CCCNC(=N)N)C(=O)N[C@@H](CCCNC(=N)N)C(=O)N4CCC[C@H]4C(=O)N[C@@H](Cc4ccc(O)cc4)C(=O)N[C@H](C(=O)N[C@@H](CC(C)C)C(=O)O)[C@@H](C)CC)cc3)cc2)nn1)C1Cc2ccccc2C1 [1a]					74.5%		88.8%	full D3R agonists			48.9%			
CC[C@H](C)[C@H](NC(=O)[C@H](Cc1ccc(O)cc1)NC(=O)[C@@H]1CCCN1C(=O)[C@H](CCCNC(=N)N)NC(=O)[C@H](CCCNC(=N)N)NC(=O)CCOCCOCCOCCOCCOCCOCCNC(=O)c1ccc(-c2ccc(-n3cc(CCCCN4CCN(c5ccccc5OC)CC4)nn3)cc2)cc1)C(=O)N[C@@H](CC(C)C)C(=O)O [2a]					90%		102%	weak partial agonist or antagonist-like behavior			75%	44.3%	92%	4.4 nM
